Results: publication PMC3961306, “Comparison of the Cancer Gene Targeting and Biochemical Selectivities of All Targeted Kinase Inhibitors Approved for Clinical Use” (PLoS ONE, 2014)

What was measured:
Experiment in all cases: Kinase profiling in a biochemical assay panel (mobility shift assays and ELISA), %-inhibition at 1 μM; selectivity entropy
[1] = target: panel of more than 300 wild-type and mutant kinases (313 kinase panel) (Homo sapiens, UniProt Q14680)
[2] = target: T1, panel of more than 300 wild-type and mutant kinases (313 kinase panel) (Homo sapiens, UniProt P53778); details: kinase p38γ; 1 μM
T1 sequence (P53778 1-367): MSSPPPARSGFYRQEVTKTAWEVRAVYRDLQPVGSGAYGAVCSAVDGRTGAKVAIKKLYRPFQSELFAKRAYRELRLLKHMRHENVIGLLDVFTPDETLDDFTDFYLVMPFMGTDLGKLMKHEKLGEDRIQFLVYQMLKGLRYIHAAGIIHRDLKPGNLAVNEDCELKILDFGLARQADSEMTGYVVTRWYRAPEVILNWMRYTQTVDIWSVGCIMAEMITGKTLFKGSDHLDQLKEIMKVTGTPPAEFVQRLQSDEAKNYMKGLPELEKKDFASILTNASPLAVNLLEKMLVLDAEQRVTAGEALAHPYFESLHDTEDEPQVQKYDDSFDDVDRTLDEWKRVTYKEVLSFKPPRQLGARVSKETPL

[3] = target: panel of more than 300 wild-type and mutant kinases (313 kinase panel) (Homo sapiens, UniProt P16591); details: kinase FER; compound at 1 μM
[4] = target: panel of more than 300 wild-type and mutant kinases (313 kinase panel) (Homo sapiens, UniProt P09769); details: kinase FGR; compound at 1 μM
[5] = target: panel of more than 300 wild-type and mutant kinases (313 kinase panel) (Homo sapiens, UniProt P11362); details: kinase FGFR1; compound at 1 μM
[6] = target: T2, panel of more than 300 wild-type and mutant kinases (313 kinase panel) (Homo sapiens, UniProt P52333); details: kinase JAK3; compound at 1 μM
T2 sequence (P52333 1-1124): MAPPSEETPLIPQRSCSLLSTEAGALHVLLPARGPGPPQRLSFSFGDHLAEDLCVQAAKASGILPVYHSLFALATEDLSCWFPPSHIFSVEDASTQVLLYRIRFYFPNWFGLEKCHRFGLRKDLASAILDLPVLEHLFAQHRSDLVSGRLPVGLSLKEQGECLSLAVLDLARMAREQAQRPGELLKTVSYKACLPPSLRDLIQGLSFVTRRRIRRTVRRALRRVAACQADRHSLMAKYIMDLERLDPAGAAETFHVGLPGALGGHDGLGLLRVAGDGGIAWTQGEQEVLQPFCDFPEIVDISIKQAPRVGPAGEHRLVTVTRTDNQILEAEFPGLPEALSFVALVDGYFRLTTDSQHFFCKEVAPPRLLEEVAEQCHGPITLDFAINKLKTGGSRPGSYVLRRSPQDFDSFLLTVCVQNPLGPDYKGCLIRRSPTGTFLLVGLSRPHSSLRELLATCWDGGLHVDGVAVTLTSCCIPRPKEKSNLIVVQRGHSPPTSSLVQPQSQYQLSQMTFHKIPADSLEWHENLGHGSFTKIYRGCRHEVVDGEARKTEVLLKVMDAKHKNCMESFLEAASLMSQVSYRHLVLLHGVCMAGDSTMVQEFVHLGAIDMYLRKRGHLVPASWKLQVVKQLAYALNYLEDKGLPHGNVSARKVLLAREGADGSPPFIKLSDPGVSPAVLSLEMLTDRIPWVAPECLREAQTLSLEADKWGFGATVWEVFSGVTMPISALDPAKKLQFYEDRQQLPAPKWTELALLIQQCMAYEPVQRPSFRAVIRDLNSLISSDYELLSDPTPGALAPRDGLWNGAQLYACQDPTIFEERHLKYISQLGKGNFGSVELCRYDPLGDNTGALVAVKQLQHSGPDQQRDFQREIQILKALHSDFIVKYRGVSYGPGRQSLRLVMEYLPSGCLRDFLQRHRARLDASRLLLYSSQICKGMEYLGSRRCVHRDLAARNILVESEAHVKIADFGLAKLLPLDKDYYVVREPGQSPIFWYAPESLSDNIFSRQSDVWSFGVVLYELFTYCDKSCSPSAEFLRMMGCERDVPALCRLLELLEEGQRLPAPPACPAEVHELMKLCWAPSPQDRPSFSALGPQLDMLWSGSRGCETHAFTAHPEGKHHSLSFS

[7] = target: T3, panel of more than 300 wild-type and mutant kinases (313 kinase panel) (Homo sapiens, UniProt P42681); details: kinase TXK; compound at 1 μM
T3 sequence (P42681 1-527): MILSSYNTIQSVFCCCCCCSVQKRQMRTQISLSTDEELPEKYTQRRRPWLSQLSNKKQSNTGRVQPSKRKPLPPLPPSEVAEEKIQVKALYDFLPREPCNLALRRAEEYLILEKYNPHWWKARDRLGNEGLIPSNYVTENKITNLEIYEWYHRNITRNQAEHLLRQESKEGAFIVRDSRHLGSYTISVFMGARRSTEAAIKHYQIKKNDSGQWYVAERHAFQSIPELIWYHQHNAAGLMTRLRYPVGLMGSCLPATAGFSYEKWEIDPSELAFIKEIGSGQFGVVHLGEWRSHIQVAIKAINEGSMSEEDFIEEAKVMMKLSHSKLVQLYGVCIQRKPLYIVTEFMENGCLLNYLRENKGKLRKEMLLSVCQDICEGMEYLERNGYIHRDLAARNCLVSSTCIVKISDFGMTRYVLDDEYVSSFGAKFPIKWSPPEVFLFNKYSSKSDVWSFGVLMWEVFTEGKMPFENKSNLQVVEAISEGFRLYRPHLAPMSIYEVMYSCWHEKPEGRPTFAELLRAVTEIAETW

[8] = target: panel of more than 300 wild-type and mutant kinases (313 kinase panel) (Homo sapiens, UniProt P05771); details: kinase PKCβ1; 1 μM
[9] = target: panel of more than 300 wild-type and mutant kinases (313 kinase panel) (Homo sapiens, UniProt P07949, Y791F)
Sequence of panel of more than 300 wild-type and mutant kinases (313 kinase panel) (Homo sapiens, UniProt P07949, Y791F) (P07949 29-1114 Y791F): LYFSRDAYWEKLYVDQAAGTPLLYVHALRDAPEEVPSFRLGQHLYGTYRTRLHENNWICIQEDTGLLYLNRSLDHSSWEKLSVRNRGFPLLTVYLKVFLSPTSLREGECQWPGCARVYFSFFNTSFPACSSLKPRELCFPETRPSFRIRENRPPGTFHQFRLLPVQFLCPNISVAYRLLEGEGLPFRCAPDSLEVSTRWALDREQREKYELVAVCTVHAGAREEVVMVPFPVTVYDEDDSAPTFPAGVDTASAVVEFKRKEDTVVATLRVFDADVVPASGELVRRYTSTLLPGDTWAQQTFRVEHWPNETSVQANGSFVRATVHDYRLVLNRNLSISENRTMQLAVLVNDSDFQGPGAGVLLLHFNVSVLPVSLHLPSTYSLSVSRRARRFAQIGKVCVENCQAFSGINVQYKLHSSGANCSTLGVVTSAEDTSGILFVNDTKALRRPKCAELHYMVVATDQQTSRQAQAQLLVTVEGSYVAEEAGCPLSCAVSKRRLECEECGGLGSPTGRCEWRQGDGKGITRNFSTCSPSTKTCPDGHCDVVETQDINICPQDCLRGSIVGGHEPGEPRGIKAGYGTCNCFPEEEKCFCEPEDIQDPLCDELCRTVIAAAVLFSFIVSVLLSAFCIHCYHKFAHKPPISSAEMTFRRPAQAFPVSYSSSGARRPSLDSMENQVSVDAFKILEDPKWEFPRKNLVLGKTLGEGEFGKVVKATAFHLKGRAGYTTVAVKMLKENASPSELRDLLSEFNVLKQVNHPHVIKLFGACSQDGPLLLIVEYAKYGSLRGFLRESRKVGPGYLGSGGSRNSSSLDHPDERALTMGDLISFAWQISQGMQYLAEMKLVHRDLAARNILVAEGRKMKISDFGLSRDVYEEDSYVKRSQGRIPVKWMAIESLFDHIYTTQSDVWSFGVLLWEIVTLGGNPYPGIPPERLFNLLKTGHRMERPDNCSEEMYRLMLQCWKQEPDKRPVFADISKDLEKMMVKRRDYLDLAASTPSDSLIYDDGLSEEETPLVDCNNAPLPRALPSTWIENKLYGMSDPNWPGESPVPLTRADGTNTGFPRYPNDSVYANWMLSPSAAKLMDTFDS

Sequence of panel of more than 300 wild-type and mutant kinases (313 kinase panel) (Homo sapiens, UniProt P11362) (P11362 22-822, change not shown): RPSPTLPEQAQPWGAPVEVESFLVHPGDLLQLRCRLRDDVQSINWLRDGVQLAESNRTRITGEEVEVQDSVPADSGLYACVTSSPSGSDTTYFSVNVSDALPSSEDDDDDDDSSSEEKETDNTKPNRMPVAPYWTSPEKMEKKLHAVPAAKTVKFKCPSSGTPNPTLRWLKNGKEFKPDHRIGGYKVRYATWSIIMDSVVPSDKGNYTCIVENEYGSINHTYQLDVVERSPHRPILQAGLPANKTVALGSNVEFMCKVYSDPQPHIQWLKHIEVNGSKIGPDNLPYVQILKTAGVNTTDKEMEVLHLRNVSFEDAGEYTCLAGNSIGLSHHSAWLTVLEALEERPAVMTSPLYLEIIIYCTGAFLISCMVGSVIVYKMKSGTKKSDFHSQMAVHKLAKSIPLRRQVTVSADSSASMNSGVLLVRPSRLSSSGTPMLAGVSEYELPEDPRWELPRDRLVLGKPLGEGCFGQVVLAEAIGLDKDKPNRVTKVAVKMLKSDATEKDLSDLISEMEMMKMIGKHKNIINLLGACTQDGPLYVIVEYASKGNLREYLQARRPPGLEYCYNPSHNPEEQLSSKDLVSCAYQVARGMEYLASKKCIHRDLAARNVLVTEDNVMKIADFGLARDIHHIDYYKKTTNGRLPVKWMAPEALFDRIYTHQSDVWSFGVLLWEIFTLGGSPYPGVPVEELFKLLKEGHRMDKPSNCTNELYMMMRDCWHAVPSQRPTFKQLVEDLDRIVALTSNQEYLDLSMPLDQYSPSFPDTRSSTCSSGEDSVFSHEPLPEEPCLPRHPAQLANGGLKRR
Sequence of panel of more than 300 wild-type and mutant kinases (313 kinase panel) (Homo sapiens, UniProt P16591) (P16591 whole entry, change not shown): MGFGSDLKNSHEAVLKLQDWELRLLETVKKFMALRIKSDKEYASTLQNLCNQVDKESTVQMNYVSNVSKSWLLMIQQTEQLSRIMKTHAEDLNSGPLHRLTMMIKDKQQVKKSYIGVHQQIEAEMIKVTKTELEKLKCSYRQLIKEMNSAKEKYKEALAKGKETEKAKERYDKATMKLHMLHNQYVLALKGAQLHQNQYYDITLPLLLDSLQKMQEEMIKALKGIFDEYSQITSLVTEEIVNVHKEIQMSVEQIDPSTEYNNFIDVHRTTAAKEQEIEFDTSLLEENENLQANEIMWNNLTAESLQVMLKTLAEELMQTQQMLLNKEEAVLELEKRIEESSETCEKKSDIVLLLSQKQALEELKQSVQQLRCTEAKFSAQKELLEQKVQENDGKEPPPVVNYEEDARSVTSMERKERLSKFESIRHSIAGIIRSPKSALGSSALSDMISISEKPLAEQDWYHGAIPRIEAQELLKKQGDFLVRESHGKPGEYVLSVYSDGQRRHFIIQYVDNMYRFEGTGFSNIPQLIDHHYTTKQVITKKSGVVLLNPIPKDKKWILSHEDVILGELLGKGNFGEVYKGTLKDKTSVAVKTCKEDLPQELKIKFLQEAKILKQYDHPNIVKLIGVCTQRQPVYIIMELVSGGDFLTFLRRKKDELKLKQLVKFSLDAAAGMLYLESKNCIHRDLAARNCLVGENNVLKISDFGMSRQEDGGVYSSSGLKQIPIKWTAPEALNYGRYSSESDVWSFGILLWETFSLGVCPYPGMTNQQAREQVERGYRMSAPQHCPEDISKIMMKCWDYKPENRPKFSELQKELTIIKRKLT

Structure (SMILES)	%-inhibition of MELK ([1]; 1 µM) [%]	%-inhibition of p38γ [2] [%]	%-inhibition of FER [3] [%]	%-inhibition of FGR [4] [%]	%-inhibition of FGFR1 [5] [%]	%-inhibition of JAK3 [6] [%]	%-inhibition of TXK [7] [%]	%-inhibition of PKCβ1 [8] [%]	%-inhibition of RET(Y791F) ([9]; 1 µM) [%]	%-inhibition of MELK ([1]; kinase MELK, compound at 1 μM) [%]	%-inhibition of RET(Y791F) ([9]; kinase RET(Y791F), 1 μM) [%]
Cc1cn(-c2cc(NC(=O)c3ccc(C)c(Nc4nccc(-c5cccnc5)n4)c3)cc(C(F)(F)F)c2)cn1 [nilotinib]	23	-15	-19	55	-29	2.15	16	3.41	16		
CO[C@H]1C[C@@H]2CC[C@@H](C)[C@@](O)(O2)C(=O)C(=O)N2CCCC[C@H]2C(=O)O[C@H]([C@H](C)C[C@@H]2CC[C@@H](OC(=O)C(C)(CO)CO)[C@H](OC)C2)CC(=O)[C@H](C)/C=C(\C)[C@@H](O)[C@@H](OC)C(=O)[C@H](C)C[C@H](C)/C=C/C=C/C=C/1C [temsirolimus]		-5.48	-4	-3	-6.47	-2	-7	-2		-1.66	-0.679
CC(=O)Nc1cccc(-n2c(=O)n(C3CC3)c(=O)c3c(Nc4ccc(I)cc4F)n(C)c(=O)c(C)c32)c1 [trametinib]		0.684	4.28	-9	-1.45	6	-4.66	-3.47		-0.588	-1.71
CCCS(=O)(=O)Nc1ccc(F)c(C(=O)c2c[nH]c3ncc(-c4ccc(Cl)cc4)cc23)c1F [vemurafenib]		-0.299	11	93	21	10	5	-3.81		4	30
